According to the NIST ThermoML archive (doi:10.1021/je700260f):

Conditions: 313.15 K, Liquid, Vibrating tube method

FC(C(F)(F)F)C(F)(F)F [1,1,1,2,3,3,3-heptafluoropropane]
Conditions | mass density [kg/m3]
6459 kPa | 1373.4
6490 kPa | 1373.6
6518 kPa | 1373.8
6545 kPa | 1374
6574 kPa | 1374.3
6602 kPa | 1374.5
6638 kPa | 1374.7
6666 kPa | 1374.8
6694 kPa | 1375.2
6718 kPa | 1375.4
6751 kPa | 1375.5
6776 kPa | 1375.7
6806 kPa | 1376
6835 kPa | 1376
6863 kPa | 1376.4
6883 kPa | 1376.7
6908 kPa | 1376.8
6938 kPa | 1376.9
6976 kPa | 1377.1
7006 kPa | 1377.4
7045 kPa | 1377.7
7079 kPa | 1377.9
7109 kPa | 1378.2
7139 kPa | 1378.3
7169 kPa | 1378.7
7198 kPa | 1378.8
7228 kPa | 1379
7266 kPa | 1379.4
7292 kPa | 1379.5
7326 kPa | 1379.7
7348 kPa | 1379.9
7382 kPa | 1380.1
7408 kPa | 1380.3
7438 kPa | 1380.5
7465 kPa | 1380.7
7501 kPa | 1380.9
7527 kPa | 1381.2
7556 kPa | 1381.4
7582 kPa | 1381.6
7612 kPa | 1381.8
7638 kPa | 1382.1
7677 kPa | 1382.3
7703 kPa | 1382.3
7742 kPa | 1382.8
7768 kPa | 1382.8
7798 kPa | 1383
7824 kPa | 1383.2
7851 kPa | 1383.5
7874 kPa | 1383.6
7910 kPa | 1383.8
7931 kPa | 1383.9
7958 kPa | 1384.2
7993 kPa | 1384.3
8020 kPa | 1384.6
8059 kPa | 1384.9
8094 kPa | 1385
8129 kPa | 1385.4
8156 kPa | 1385.5
8196 kPa | 1385.9
8223 kPa | 1386
8263 kPa | 1386.4
8295 kPa | 1386.4
8331 kPa | 1386.7
8367 kPa | 1387
8399 kPa | 1387.1
8430 kPa | 1387.3
8461 kPa | 1387.6
8497 kPa | 1387.9
8523 kPa | 1388.2
8564 kPa | 1388.3
8622 kPa | 1388.8
8654 kPa | 1388.8
8689 kPa | 1389.1
8720 kPa | 1389.4
8766 kPa | 1389.7
8798 kPa | 1390
8834 kPa | 1390.1
8861 kPa | 1390.3
8887 kPa | 1390.6
8915 kPa | 1390.6
8943 kPa | 1390.9
8979 kPa | 1391.1
9019 kPa | 1391.5
9044 kPa | 1391.5
9072 kPa | 1391.7
9097 kPa | 1391.9
9130 kPa | 1392.1
9160 kPa | 1392.2
9179 kPa | 1392.3
9214 kPa | 1392.6
9236 kPa | 1392.7
9263 kPa | 1393
9286 kPa | 1393.1
9320 kPa | 1393.4
9340 kPa | 1393.4
9367 kPa | 1393.6
9393 kPa | 1393.8
9419 kPa | 1394
9443 kPa | 1394
9465 kPa | 1394.3
9495 kPa | 1394.3
9518 kPa | 1394.6
9544 kPa | 1394.8
9564 kPa | 1394.9
9591 kPa | 1395
9619 kPa | 1395.3
9823 kPa | 1396.6
9856 kPa | 1396.8
9892 kPa | 1397
9921 kPa | 1397.3
9953 kPa | 1397.4
9987 kPa | 1397.4
10010 kPa | 1397.7
10062 kPa | 1398.1
10094 kPa | 1398.2
10123 kPa | 1398.4
10151 kPa | 1398.5
10183 kPa | 1398.9
10211 kPa | 1399.1
10247 kPa | 1399.1
10272 kPa | 1399.3
10301 kPa | 1399.5
10332 kPa | 1399.8
10361 kPa | 1400
10389 kPa | 1400
10421 kPa | 1400.3
10450 kPa | 1400.4
10482 kPa | 1400.8
10519 kPa | 1401
10547 kPa | 1401.1
10580 kPa | 1401.3
10609 kPa | 1401.5
10646 kPa | 1401.7
10680 kPa | 1401.9
10709 kPa | 1402.1
10743 kPa | 1402.3
10780 kPa | 1402.5
10813 kPa | 1402.7
10838 kPa | 1402.9
10871 kPa | 1403.1
10899 kPa | 1403.2
10928 kPa | 1403.5
10956 kPa | 1403.5
10981 kPa | 1403.7
11015 kPa | 1404.1
11048 kPa | 1404.2
11069 kPa | 1404.4
11102 kPa | 1404.4
11127 kPa | 1404.6
11164 kPa | 1404.9
11193 kPa | 1405
11222 kPa | 1405.3
11252 kPa | 1405.4
11278 kPa | 1405.5
11317 kPa | 1405.7
11360 kPa | 1405.9
11399 kPa | 1406.3
11424 kPa | 1406.4
11461 kPa | 1406.5
11486 kPa | 1406.8
11518 kPa | 1406.9
11544 kPa | 1407.2
11578 kPa | 1407.4
11628 kPa | 1407.6
11692 kPa | 1408
11726 kPa | 1408.2
11751 kPa | 1408.3
11788 kPa | 1408.5
11818 kPa | 1408.8
11860 kPa | 1408.9
11889 kPa | 1409.2
11927 kPa | 1409.3
11969 kPa | 1409.5
11998 kPa | 1409.7
12023 kPa | 1409.9
12048 kPa | 1410.1
12069 kPa | 1410.1
12099 kPa | 1410.3
12128 kPa | 1410.6
12165 kPa | 1410.9
12206 kPa | 1410.9
12231 kPa | 1411.1
12265 kPa | 1411.4
12294 kPa | 1411.4
12323 kPa | 1411.6
12344 kPa | 1411.8
12373 kPa | 1411.9
12407 kPa | 1412.1
12448 kPa | 1412.4
12477 kPa | 1412.4
12510 kPa | 1412.8
12532 kPa | 1412.9
12565 kPa | 1413.1
12616 kPa | 1413.4
12650 kPa | 1413.4
12689 kPa | 1413.8
12723 kPa | 1413.9
12749 kPa | 1414.1
12786 kPa | 1414.2
12813 kPa | 1414.5
12852 kPa | 1414.7
12888 kPa | 1414.9
12924 kPa | 1415.1
12959 kPa | 1415.3
12986 kPa | 1415.4
